# Measurements: patent US20050244413A1, “Compositions and methods for treating cancer using cytotoxic CD44 antibody immunoconjugates and chemotherapeutic agents” (priority 2002, published 2005)
# Several values for one entry are separate records, joined by “and”; a condition that tells them apart may be missing. Equal entries are not always repeated. Where two headings read alike, the source gives them in different places.
# How the values were obtained:
# [1] = tested on: MDA-MB-453 tumors; conditions: BIWI 1 75 μg/kg DM1 i.v. q7dx4
# Experimental: Experiments were performed using nude mice xenografted subcutaneously with the human breast carcinoma cell line MDA-MBA53. […] The efficacy of these combinations was compared to those of the respective monotherapies by i) analysing the tumor volumes over time and ii) by determining the time for tumors to reach a certain size (tumor growth delay).
# The dilutions were prepared freshly for each application or stored at +4° C. during the whole treatment period. […] 200 μl of solutions with different concentrations were injected into the tail vein. Docetaxel (Taxotere®, Aventis, 10 mg/ml) was diluted in 0.9% NaCl. 200 μl of solutions with different concentrations were injected into the tail vein.
# Briefly, 1×10^7 MDA-MB-453 cells (ATCC No. HTB-131) were injected into the mammary fat pad of female NMRI nu/nu mice. After reaching a volume of approximately 1000 mm^3 tumors were excised, cut into 4×4 mm pieces and passaged further subcutaneously. Tumor fragments were cryoconserved in 90% RPMI 1640/10% dimethylsulfoxide (slow freezing process down to −80° C., storage in liquid nitrogen). For further passaging, frozen tumor fragments were thawed, washed 3 times in PBS and implanted subcutaneously into the right and left flanks of a 4-5 female NMRI nu/nu mice. Tumors of these mice were then used to prepare the animals for a therapy experiment. Tumors were excised with a size of approximately 10 mm in diameter, cut into 2×2 mm pieces and implanted subcutaneously into the right flank of 6-8 week old female NMRI nu/nu mice. Approximately twice as many animals as needed for the experiment were prepared. When tumors reached a size of 5-10 mm in diameter (10-14 days after implantation), animals were randomised and treatments were started. Animals were obtained from Harlan (Germany) or M&B (Denmark). Tumor sizes and body weights were recorded as described in Section 2.7.
# [2] = tested on: MDA-MB 453 tumors; test: BIWI 1 monotherapy in MDA-MB 453 xenografted mice; format: in vivo, mouse
# Experimental: (§1) In vivo anti-tumor efficacy of BIWI 1 was tested in three nude mouse xenograft models applying antigen-positive human tumors: A431 (ATCC # CRL 1555; epidermoid carcinoma of the vulva), FaDu (ATCC # HTB 43; squamous cell carcinoma of the pharynx), and MDA-MB 453 (ATCC # HTB-131; breast carcinoma). The cells were received from ATCC and cultured in RPMI1640 medium containing 10% fetal calf serum and supplements. 1×10^6 tumors cells were transplanted subcutaneously into the right flank of 6 week old female NMRI-nu/nu mice. Tumor growth was monitored by measuring tumor size. A tumor response was rated as complete response when the tumor completely disappeared at any time after start of treatment. The response was rated as partial response when the tumor volume decreased after treatment but thereafter started regrowing. The tolerability of the treatment was monitored by measuring mouse weight during the observation period.
# Groups of 6 mice were treated with 6.25 mg/kg BIWI 1, 12.5 mg/kg BIWI 1, and 25 mg/kg BIWI 1, respectively. Treatment consisted of i.v. injections of BIWI 1 given weekly for four weeks. The average tumor size at start of treatment was 246±/−79 mm^3 (PBS), 216 +/85 mm^3 (6.25 mg/kg BIWI 1), 188±/−79 mm^3 (12.5 mg/kg BIWI 1), and 207±/−96 mm3 (25 mg/kg BIWI 1), respectively. The initial tumor volume doubling time of the control tumors was approximately 5 days. […] Tumors treated with 12.5 mg/kg or 6.25 mg/kg responded completely in 5/6 cases in each dose group, and 4 animals of each group stayed tumor free until the end of the experiment.
# [3] = tested on: antigen-positive FaDu cells; test: In vitro binding to FaDu cells (FACS); conditions: 1 hour on ice, FITC-labeled anti-human IgG, read-out: apparent KD
# Experimental: The binding of BIWA 4 antibody and BIWI 1 conjugate to antigen-positive FaDu cells was determined. Cells ([…]) were incubated in 96-well plates with varying concentrations of antibody or conjugate on ice for 1 hour. The test article was washed from the plate and FITC-labeled anti-human IgG was added and the incubation on ice was continued in the dark for 1 hour. After washing, the cells were fixed with 1% paraformaldehyde and analyzed on a fluorescence activated cell sorter (FACS).
# [4] = tested on: A431 tumors; test: BIWI 1 monotherapy in A431 xenografted nude mice; format: in vivo, mouse; conditions: five consecutive days
# Experimental: as §1
# Mice were randomised into the following treatment groups (treatment/initial mean tumor volume/tumor volume range/number of mice): • Group 1: Control (PBS)/185±217 mm^3/19-424 mm^3/5 mice. • Group 2: BIWA 4 (21 mg/kg/d)/133±115 mm^3/42-302 mm^3/5 mice. • Group 3: BIWI 1 (2.1 mg/kg/d)/107±63 mm^3/42-205 mm^3′/5 mice. • Group 4: BIWI 1 (7 mg/kg/d)/132±73 mm^3/42-205 mm^3/5 mice. • Group 5: BIWI 1 (21 mg/kg/d)/107±[…]/42-205 mm^3/5 mice.
# Groups of 5 mice were treated with 2.1 mg/kg/d BIWI 1, 7 mg/kg/d BIWI 1, 21 mg/kg/d BIWI 1, and 21 mg/kg/d control antibody, respectively. Treatment consisted of i.v. injections of BIWI 1 given on five consecutive days, starting at day 1.
# [5] = tested on: breast carcinoma xenografts; test: BIWI 1 (five daily doses) combination with paclitaxel in human breast carcinoma xenograft model; format: in vivo, mouse
# Experimental: BIWI was given i.v. into the tail vein at doses of 50 μg DM1/kg/day or 100 μg DM1/kg/day for five consecutive days. Paclitaxel (Taxol®) was given i.v. at 20 or 10 mg/kg, doxorubicin (Adriamycin®) at 6 or 4 mg/kg only on the first day of the treatment period, in each case 4 hours after BIWI 1 treatment. In mice bearing breast carcinoma xenografts with a volume of approximately 100 mm3.
# [6] = tested on: mouse CD44v6; test: Cross-reactivity with mouse CD44v6; format: binding
# [7] = tested on: MDA-MB-453 tumors; test: BIWI 1 combination with doxorubicin in nude mice xenografted with MDA-MB-453 tumors; format: in vivo, mouse
# Experimental: Similar experiments as outlined under Section 2.6 were undertaken in a human breast carcinoma xenograft model. Experiments were performed using nude mice xenografted subcutaneously with the human breast carcinoma cell line MDA-MBA53. […] The efficacy of these combinations was compared to those of the respective monotherapies by i) analysing the tumor volumes over time and ii) by determining the time for tumors to reach a certain size (tumor growth delay).
# The dilutions were prepared freshly for each application or stored at +4° C. during the whole treatment period. […] Doxorubicin (Doxorubicin “Ebewe”®, 2 mg/ml) was diluted in PBS. 200 μl of solutions with different concentrations were injected into the tail vein. Docetaxel (Taxotere®, Aventis, 10 mg/ml) was diluted in 0.9% NaCl. 200 μl of solutions with different concentrations were injected into the tail vein.
# The xenograft model was handled slightly different as outlined under Section 2.1. Briefly, 1×10^7 MDA-MB-453 cells (ATCC No. HTB-131) were injected into the mammary fat pad of female NMRI nu/nu mice. After reaching a volume of approximately 1000 mm^3 tumors were excised, cut into 4×4 mm pieces and passaged further subcutaneously. Tumor fragments were cryoconserved in 90% RPMI 1640/10% dimethylsulfoxide (slow freezing process down to −80° C., storage in liquid nitrogen). For further passaging, frozen tumor fragments were thawed, washed 3 times in PBS and implanted subcutaneously into the right and left flanks of a 4-5 female NMRI nu/nu mice. Tumors of these mice were then used to prepare the animals for a therapy experiment. Tumors were excised with a size of approximately 10 mm in diameter, cut into 2×2 mm pieces and implanted subcutaneously into the right flank of 6-8 week old female NMRI nu/nu mice. Approximately twice as many animals as needed for the experiment were prepared. When tumors reached a size of 5-10 mm in diameter (10-14 days after implantation), animals were randomised and treatments were started. Animals were obtained from Harlan (Germany) or M&B (Denmark). Tumor sizes and body weights were recorded as described in Section 2.7.
# [8] = tested on: antigen-positive A431 cells; test: In vitro cytotoxicity, MTS/PMS cell proliferation assay, A431; format: cell-based, human; conditions: 4 days exposure
# Experimental: For determination of viable cells the Cell Titer 96® AQueous non-radioactive cell proliferation assay (Promega) was used. Five thousand cells per well were seeded into 96-well plates in 90 μl medium without phenole red. Cells were allowed to settle down for 1 to 3 h and then serial dilutions of the immunoconjugate in 10 μl PBS were added. Cells without immunoconjugate served as negative control. Cells were incubated for 4 days at 37° C. in a humified 5% CO2 atmosphere and then 20 μl MTS/PMS were added according to the manufacturer's recommendation. After additional 1 to 4 h incubation at 37° C. the absorbance at 490 nm was recorded using an ELISA plate reader. For each cell line triplicates were analyzed. The percentage of the surviving cell fraction and the IC50 value were calculated using the GraphPad Prism® (Version 3.0) software.
# The in vitro cytotoxicity of BIWI 1 was evaluated using the antigen-positive cell lines A431 and FaDu, and the antigen-negative cell line […]. Cells were exposed to different concentrations of BIWI 1 for 4 days, then stained with MTS/PMS and assayed on an ELISA plate reader. The surviving fractions of cells were then calculated using the GraphPad Prism® software package.
# [9] = 25 mg/kg BIWI 1 i.v. weekly for four weeks
# [10] = 7 mg/kg/d or 21 mg/kg/d BIWI 1 i.v.
substance,measurement,setting,value
BIWI 1,GDF4,[1],1.3
same,T4T,[1],14 days and 14.1 days
same,T/C (d 16),[1],75%
same,animals tumor free until the end of the experiment,"[2]; 12.5 mg/kg or 6.25 mg/kg BIWI 1, each group of 6 mice",4
same,complete responses,"[2]; 12.5 mg/kg or 6.25 mg/kg BIWI 1 i.v. weekly for four weeks, in each dose group",5/6
same,day on which tumors disappeared,[2]; [9],~22 days
same,tumor regrowth until end of observation period (day 64),[2]; [9],No tumor regrowth
same,tumor response,[2]; [9],all tumors responded completely
same,Kd,[3],1.8 nM
same,tumors with partial response,"[4]; 2.1 mg/kg/d BIWI 1 i.v., 5 mice",2
same,complete responses,"[4]; 2.1 mg/kg/d BIWI 1 i.v., no regrowth until day 134",3/5
same,day on which tumors disappeared,[4]; [10],~17 days
same,tumor regrowth until end of observation period (day 134),[4]; [10],No tumor regrowth
same,tumor response,[4]; [10],all tumors responded completely
same,complete tumor regressions,"[5]; BIWI 1 monotherapy 50 μg DM1/kg/day i.v., five consecutive days",2/12
same,T/C (median relative tumor volumes of treated versus control groups),[5]; BIWI 1 monotherapy 50 μg DM1/kg/day x5,19%
same,Complete Regression,"[5]; BIWI 1 monotherapy 100 μg DM1/kg/day i.v., five consecutive days, tumors approx. 100 mm3",12/12
same,cross-reaction with mouse CD44v6,[6],does not cross-react
same,GDF4,[7]; BIWI 1 50 μg/kg DM1 i.v. q7dx4,1.0
same,T/C (d13),[7]; BIWI 1 50 μg/kg DM1 i.v. q7dx4,68%
same,GDF4,[7]; BIWI 1 75 μg/kg DM1 i.v. q7dx4,1.6
same,T4T,[7]; BIWI 1 75 μg/kg DM1 i.v. q7dx4,13 days and 13.0 days
same,T/C (d13),[7]; BIWI 1 75 μg/kg DM1 i.v. q7dx4,59%
same,tumor bearing animals cured,"[7]; BIWI 1 100 μg/kg DM1, q7dx4",4/6
same,IC50,[8],~76 nM
